For orientation: IC50 means the concentration that gives 50% inhibition.

Structures are written as SMILES.

For this assay, the target named is T1, recombinant human mPGES-1 (Homo sapiens, UniProt O14684).
T1 construct: made in house; host or cells: Rosetta E. coli (membrane/microsome fraction)
T1 sequence (O14684 1-152): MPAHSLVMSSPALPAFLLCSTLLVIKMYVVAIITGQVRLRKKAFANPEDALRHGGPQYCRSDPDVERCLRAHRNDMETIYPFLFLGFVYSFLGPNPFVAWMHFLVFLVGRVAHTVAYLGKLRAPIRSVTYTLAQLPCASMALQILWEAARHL
Briefly: Assay A: mPGES-1 enzyme assay (HTRF detection of PGE2). The conditions noted are these: biological assay A; microsomes from E. coli expressing recombinant human mPGES-1; read-out: mPGES-1 inhibitory effect IC50. The assay is classed as biochemical. From the text:
The aim of this assay is to determine the affinity of a test compound for the mPGES-1 enzyme.
• 1. Riendeau, D., R. Aspiotis, D. Ethier, Y. Gareau, E. Grimm, J. Guay, S. Guiral, H. Juteau, J. Mancini, N. Methot, J. Rubin, and R. Friesen, Inhibitors of the inducible microsomal prostaglandin E2 synthase (mPGES-1) derived from MK-886. Bioorg Med Chem Lett, 2005. 15(14): p. 3352-3355. • 2. Cote, B., L. Boulet, C. Brideau, D. Claveau, D. Ethier, R. Frenette, M. Gagnon, A. Giroux, J. Guay, S. Guiral, J. Mancini, E. Martins, F. Masse, N. Methot, D. Riendeau, J. Rubin, D. Xu, H. Yu, Y. Ducharme, and R. Friesen, Substituted phenanthrene imidazoles as potent, selective, and orally active mPGES-1 inhibitors. Bioorg Med Chem Lett, 2007. 17(24): p. 6816-6820. Assay A: mPGES-1 Enzyme Assay List of Reagents Used: • Glutathione (Sigma, G-4251) • Freeze culture in Rosetta E coli expression strain. • LB growth media with Ampillicillin (Amp) final concentration in culture 50 μg/mL • Chloroamphenicol stock 34 mg/mL (chloro) final concentration in culture 34 μg/mL • Sterile growth flasks for 500 mL-1 liter cultures • 0.1 M KP, buffer pH 7.4 • 9.25% HCl • PGH2 (0.25 mM) • Fe (II) Cl2 tetrahydrate, 99% (Sigma, 220229) • 384-well plate with compounds • 96-well plate, polypropylene (Thermo fast 96 skirted VWR) • 384-well plate polypropylene PCR plate (Greiner 785201) • Greiner 384-well plate pp (In vitro cat. no. 781280) • Adhesive sealing film for 96-well plates (Sigma-Aldrich) • Aluminium foil (PCR foil, 310-0030-127-471 from Labora) • PBS (GIBCO 14040) • Prostaglandin E2 Assay (Cisbio, cat. no. 62P2APEC) • Biomek FX robot (Beckman Coulter) • Biomek NX robot (Beckman Coulter) • Multidrop; micro or combi (ThermoLabsystems) • Plate reader: Safire2 (Tecan)
Microsomes from Rosetta E. coli bacteria expressing recombinant human mPGES-1 can be derived as described below:
Inoculate 5 mL LB with Amp and Chloro with bacteria from freeze culture. Incubate overnight at 37° C. with 200 rpm. Thereafter, inoculate 500-800 mL LB containing Amp and Chloro with the 5 mL on culture and grow to OD640 of 0.6-0.8. Chill the culture to +4° C. before induction. Induce the culture with IPTG at a final concentration of 400 μM. Express the protein at room temp 18-23° C. with 200 rpm shaking overnight.
The following steps can be performed on the following day: • 1. Spin down the cells in 250 mL centrifuge flasks for 15 min at 7000 rpm • 2. Dissolve the pellet from 250 mL culture in 12.5 mL homogenization buffer • 3. Disintegrate the cells by sonication, 4×10 seconds at 35% amplitude • 4. Add 2.5 mL MgCl2 (100 mM) and DNase 12.5 μL (0.8 mg/mL) and incubate on ice for 30 min • 5. Spin down the bacteria debris and save the supernatant, 7000 rpm for 15 min • 6. Isolate the protein containing membranes in the supernatant by ultracentrifugation 45000×g for 1 hour. • 7. Discard the supernatant and dissolve the pellet in 20 mM KPi buffer and aliquot the enzyme and store aliquots at −80° C.
Before each experiment is performed an aliquot of the enzyme is thawed and it can then be dissolved in 0.1 M KP, pH 7.4 buffer containing 2.5 mM GSH. 50 μL of this enzyme solution is subsequently dispensed in a 384-well plate at room temperature. 0.5 μL of the inhibitor dissolved in DMSO is thereafter added to each well and incubated for 25 minutes at room temperature. Subsequently, 2 μL of PGH2 dissolved in an appropriate solvent is added to each well and after one minute at room temperature, the acidified stop solution containing FeCl2 is added. 4 μL of the total volume is transferred to a separate plate and diluted 750-fold in two separate steps before quantification of PGE2.
In order to quantitate the amount of PGE2 that has been formed, a homogenous time resolved fluorescent (HTRF) detection of PGE2 can be performed by the use of a commercially available kit from CisBio essentially according to the manufacturer's protocol. […]
On the technique in general: TR-FRET usually uses a lanthanide donor and a delayed reading to cut background.
As for `Cn1c(Nc2cc(CNC(=O)C(C)(C)C)ccc2C(F)(F)F)nc2cc(Cl)c(N3CCC(C(F)(F)F)CC3)cc21` [Example 104], the half-inhibitory concentration (IC50) is 2.4 nM. The result for `CC(C(=O)NCc1ccc(C(F)(F)F)c(Nc2nc3cc(Cl)c(N4CCC(C(F)(F)F)CC4)cc3n2C)c1)C(F)(F)F` (centres unmarked) [Example 105, N-{4-Trifluoromethyl-3-[5-chloro-1-methyl-6-(4-trifluoromethyl-piperidin-1-yl)-1H-benzimidazol-2-ylamino]-benzyl}-3,3,3-trifluoro-2-methyl-propanamide] reads 3.9 nM; that for `Cn1c(Nc2cc(CNC(=O)C(C)(F)F)ccc2C(F)(F)F)nc2cc(Cl)c(N3CCC(C(F)(F)F)CC3)cc21` [Example 106], 5.7 nM; that for `Cn1c(Nc2cc(CNC(=O)C3(O)CC3)ccc2C(F)(F)F)nc2cc(Cl)c(N3CCC(C(F)(F)F)CC3)cc21` [Example 107], 13 nM. For `Cn1c(Nc2cc(CNC(=O)C(C)(N)C(F)(F)F)ccc2C(F)(F)F)nc2cc(Cl)c(N3CCC(C(F)(F)F)CC3)cc21` (centres unmarked) [Example 108], the IC50 stood at 5.8 nM. The result for `Cn1c(Nc2cc(CN[S+]([O-])C(C)(C)C)ccc2C(F)(F)F)nc2cc(Cl)c(N3CCC(C(F)(F)F)CC3)cc21` (centres unmarked) [Example 109, N-(4-Trifluoromethyl-3-(5-chloro-1-methyl-6-(4-trifluoromethyl-piperidin-1-yl)-1H-benzo[d]imidazol-2-ylamino)benzyl)-2-methylpropane-2-sulfinamide] reads 5.2 nM; that for `Cn1c(Nc2cc(CNS(=O)(=O)C(C)(C)C)ccc2C(F)(F)F)nc2cc(Cl)c(N3CCC(C(F)(F)F)CC3)cc21` [Example 110, N-(4-Trifluoromethyl-3-(5-chloro-1-methyl-6-(4-trifluoromethyl-piperidin-1-yl)-1H-benzo[d]imidazol-2-ylamino)benzyl)-2-methylpropane-2-sulfonamide], 1.5 nM. The result for `Cn1c(Nc2cc(CNC(=O)C3(C(F)(F)F)CC3)ccc2F)nc2cc(Cl)c(N3CCC(C(F)(F)F)CC3)cc21` [Example 111, N-{4-Fluoro-3-[5-chloro-1-methyl-6-(4-trifluoromethyl-piperidin-1-yl)-1H-benzimidazol-2-ylamino]-benzyl}-1-trifluoromethyl-cyclopropanamide] reads 19 nM; that for `Cn1c(Nc2cc(CNC(=O)C3(C(F)(F)F)CC3)ccc2F)nc2cc(Cl)c(N3CCC(F)(F)CC3)cc21` [Example 112], 22 nM. As to `Cn1c(Nc2cc(CNC(=O)C3(C(F)(F)F)CC3)ccc2F)nc2cc(C#N)c(N3CCC(C(F)(F)F)CC3)cc21` [Example 113], the concentration for half-maximal inhibition (IC50) came to 11 nM. `Cn1c(Nc2cc(CNC(=O)C3(C(F)(F)F)CC3)c(F)cc2Cl)nc2cc(Cl)c(N3CCC(C(F)(F)F)CC3)cc21` [Example 114, N-{4-Chloro-2-fluoro-5-[5-chloro-1-methyl-6-(4-trifluoromethyl-piperidin-1-yl)-1H-benzimidazol-2-ylamino]-benzyl}-1-trifluoromethyl-cyclopropanamide]: the IC50 stood at 4.8 nM. Turning to `Cn1c(Nc2cc(CNC(=O)C3(C(F)(F)F)CC3)c(F)cc2Cl)nc2cc(Cl)c(N3CCC(C)(C)CC3)cc21` [Example 115], the IC50 was determined as 9.2 nM. Regarding `Cn1c(Nc2cc(CNC(=O)C3(C(F)(F)F)CC3)cc(F)c2Cl)nc2cc(Cl)c(N3CCC(C(F)(F)F)CC3)cc21` [Example 116, N-{4-Chloro-5-fluoro-3-[5-chloro-1-methyl-6-(4-trifluoromethyl-piperidin-1-yl)-1H-benzimidazol-2-ylamino]-benzyl}-1-trifluoromethyl-cyclopropanamide], the IC50 was determined as 5.9 nM.

As for `CC(C)(C)C(=O)NCc1ccc(OC(F)(F)F)c(Nc2nc3cc(C#N)c(N4CCCC(C(F)(F)F)C4)cc3[nH]2)c1` (centres unmarked) [Example 117, N-{3-(5-Cyano-6-[3-trifluoromethyl-piperidin-1-yl)-1H-benzo[d]imidazol-2-ylamino]-4-trifluoromethoxy-benzyl}-2,2-dimethyl-propionamide], the half-inhibitory concentration (IC50) came out at 120 nM.

With `CC1(C(=O)NCc2ccc(Cl)c(Nc3nc4ccc(N5CCCC5)cc4[nH]3)c2)CCCCC1` [Example 118], the concentration for half-maximal inhibition (IC50) worked out at 53 nM. The result for `CC1(C(=O)NCc2ccc(Cl)c(Nc3nc4ccc(N5CCOCC5)cc4[nH]3)c2)CCCCC1` [Example 119] reads above 100 nM; that for `CN1CCN(c2cc3[nH]c(Nc4cc(CNC(=O)C5(C)CCCCC5)ccc4Cl)nc3cc2Cl)CC1` [Example 120], 266 nM. The result for `CC1(C(=O)NCc2ccc(Cl)c(Nc3nc4cc(Cl)c(N5CCOCC5)cc4[nH]3)c2)CCCCC1` [Example 121] reads 60 nM; that for `COC[C@@H]1CCCN1c1cc2[nH]c(Nc3cc(CNC(=O)C4(C)CCCCC4)ccc3Cl)nc2cc1Cl` [Example 122], 7.9 nM.

Regarding `Cn1c(Nc2cc(CNC(=O)C3(C)CCCCC3)ccc2Cl)nc2ccc(N3CCCC3)cc21` [Example 123], the half-maximal inhibitory concentration (IC50) worked out at 29 nM.

On to `Cn1c(Nc2cc(CNC(=O)C3(C(F)(F)F)CC3)ccc2Cl)nc2cc(Cl)c(N3CCCC(C(F)(F)F)C3)cc21` (centres unmarked) [Example 124], for which the IC50 turned out to be 2.6 nM.

As for `CC(C)N1CCN(c2cc3c(cc2Cl)nc(Nc2cc(CNC(=O)C4(C(F)(F)F)CC4)ccc2Cl)n3C)CC1` [Example 125], the 50% inhibitory concentration (IC50) is 32 nM. The result for `COC[C@@H]1CCCN1c1cc2c(cc1Cl)nc(Nc1cc(CNC(=O)C3(C(F)(F)F)CC3)ccc1Cl)n2C` [Example 126] reads 6.7 nM; that for `N#Cc1cc2nc(Nc3cc(CNC(=O)C4(C(F)(F)F)CC4)ccc3Cl)[nH]c2cc1N1CCCC1` [Example 127], 26 nM; that for `O=C(NCc1ccc(Cl)c(Nc2nc3cc(Cl)c(N4CCOCC4)cc3[nH]2)c1)C1(C(F)(F)F)CC1` [Example 128], 172 nM.

For the compound `CN1CCN(c2cc3[nH]c(Nc4cc(CNC(=O)C5(C(F)(F)F)CC5)ccc4Cl)nc3cc2Cl)CC1` [Example 129], the concentration for half-maximal inhibition (IC50) is 634 nM.

As to `N#Cc1cc2nc(Nc3cc(CNC(=O)C4(C(F)(F)F)CC4)ccc3Cl)[nH]c2cc1N1CCCC(C(F)(F)F)C1` (centres unmarked) [Example 130], the IC50 came out at 15 nM. The result for `Cn1c(Nc2cc(CNC(=O)C3(C(F)(F)F)CC3)ccc2Cl)nc2ccc(N3CCCC3)cc21` [Example 132] reads 124 nM; that for `COC[C@@H]1CCCN1c1cc2[nH]c(Nc3cc(CNC(=O)C4(C(F)(F)F)CC4)ccc3Cl)nc2cc1Cl` [Example 133, (S)—N-{4-Chloro-3-[5-chloro-6-(2-methoxymethyl-pyrrolidin-1-yl)-1H-benzo[d]imidazol-2-ylamino]benzyl}-1-trifluoromethyl-cyclopropanecarboxamide], 25 nM.
